Laboratory results taken from PubChem BioAssay (NCI).
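Grown in 96-well plates, cells were treated for 48 hours with each compound at five concentrations. Insufficient inhibition: endpoint recorded as highest concentration tested. GI50: concentration for 50% inhibition of growth. TGI denotes the concentration required for complete inhibition of growth.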

How the values were obtained:
Experiment in all cases: DTP human tumour cell line panel, 48 h
ACHN renal = test system: ACHN renal
HCT-116 colon = test system: HCT-116 colon
HT29 colon = test system: HT29 colon
K-562 leukemia = test system: K-562 leukemia
MCF7 breast = test system: MCF7 breast
NCI/ADR-RES ovarian = test system: NCI/ADR-RES ovarian
SK-MEL-2 melanoma = test system: SK-MEL-2 melanoma
SK-MEL-28 melanoma = test system: SK-MEL-28 melanoma
SK-OV-3 ovarian = test system: SK-OV-3 ovarian
UACC-257 melanoma = test system: UACC-257 melanoma

Structure (SMILES)	TGI (ACHN renal) [µM]	TGI (HCT-116 colon) [µM]	TGI (HT29 colon) [µM]	TGI (K-562 leukemia) [µM]	TGI (MCF7 breast) [µM]	TGI (NCI/ADR-RES ovarian) [µM]	TGI (SK-MEL-2 melanoma) [µM]	TGI (SK-MEL-28 melanoma) [µM]	TGI (SK-OV-3 ovarian) [µM]	TGI (UACC-257 melanoma) [µM]	GI50 (HT29 colon) [µM]	GI50 (UACC-257 melanoma) [µM]
COc1ccc(N2CN(C)CSC2=S)cc1	> 100	> 100	> 100	> 100	> 100	> 100	> 100	> 100	66.8	> 100	–	–
Cc1c(OCCCOc2ccc3c(=O)cc(-c4ccccc4)oc3c2C)ccc2c(=O)cc(-c3ccccc3)oc12	–	> 100	> 100	> 100	–	–	> 100	> 100	> 100	> 100	–	–
C=CCOC(=O)c1c(C)n([O-])c2cc(Cl)c(Cl)cc2[n+]1=O	50.9	39	36.8	> 100	60.8	46.9	39.4	30.3	59.8	37.9	–	–
O=C1C(C(c2ccc([N+](=O)[O-])cc2)N2CCOCC2)=C(O)C(c2ccccc2)N1c1ccccc1 (stereo unspecified)	> 10	> 10	> 10	> 10	> 10	> 10	> 10	> 10	> 10	> 10	–	–
Nc1ncnc2c1ncn2C1OC(CO)C(O)C1NS(=O)(=O)c1ccccc1 (stereo unspecified)	> 100	> 100	> 100	> 100	> 100	> 100	> 100	> 100	> 100	> 100	–	–
Cc1ccc2n(c1)cc(-c1ccc(/C=N/NC(=N)N/N=C/c3ccc(-c4cn5cc(C)ccc5[n+]4C)cc3)cc1)[n+]2C	> 100	> 100	> 100	–	> 100	> 100	–	33.6	> 100	> 100	–	–
CCOC(=O)CCC(NC(=O)c1ccc(Nc2nc3cc(C(F)(F)F)ccc3nc2C(=O)OCC)cc1)C(=O)OCC (stereo unspecified)	26.7	19.9	18.7	> 100	–	29.7	28.8	27.9	–	34.5	–	–
Brc1c2nc3ccccc3nc2n2ccc3ccccc3c12	> 100	> 100	–	> 100	–	–	> 100	> 100	> 100	> 100	–	–
O=C(/C=C/c1ccc(OCc2ccccc2)cc1)NCc1ccc(C(=O)NCc2ccccc2)cc1	> 100	> 100	> 100	> 100	> 100	> 100	> 100	> 100	> 100	> 100	–	–
CC1(C)Oc2ccc3c(=O)cc(-c4cccs4)oc3c2C1C(=O)O (stereo unspecified)	–	> 100	> 100	> 100	> 100	> 100	> 100	–	> 100	> 100	–	–
COc1cccc2c1C(=O)c1c(O)c3c(c(O)c1C2=O)C[C@@](O)(C(=O)CN1CCOCC1)C[C@@H]3OC1CC(N)C(O)C(C)O1 (stereo partly specified)	–	> 100	–	61.7	> 100	> 100	22.7	29.1	> 100	–	3.87	11.3
O=C(NNS(=O)(=O)c1ccc(Br)cc1)c1ccc(Cl)cc1NC(=O)C12CC3CC(CC(C3)C1)C2	29.7	> 100	27.2	24.4	34.1	32.5	25.3	–	30.3	26.9	–	–
C/C=C/c1cc2c(c(=O)o1)C(=O)[C@@H](O)[C@H](C)O2	–	20.1	44.6	> 100	14.8	32.3	34.2	29.5	> 84.4	31.8	–	–
N/C(=N\S(=O)(=O)c1ccc(-c2ccccn2)s1)Nc1ccc(Cl)cc1	33.6	31	35.2	66.2	34.4	43.5	27.4	37.8	47.9	21.1	–	–
CCCCC(=C=C(C)CO)C1CCCN1C(=O)OC(C)(C)C (stereo unspecified)	68.2	29.5	34.3	38.4	43.5	42.5	30.6	36	67.4	32.7	–	–
C[N+](C)=c1ccc2nc3c(ccc4ccccc43)oc-2c1	26.7	20.3	29.6	9.39	–	–	36.6	28.4	33.5	16.4	–	–
COc1ccc(C2S/C(=C\c3cccc(OC)c3)C(=O)N2NC(=O)Cc2ccccc2)cc1 (stereo unspecified)	> 100	> 100	> 100	> 100	–	–	> 100	> 100	> 100	> 100	–	–
COC(=O)CCCC1(CCCC(=O)OC)CCCCCCCCC(CCCC(=O)OC)(CCCC(=O)OC)C(=O)C1=O	> 100	> 100	> 100	37.8	> 100	> 100	70.5	> 100	> 100	> 100	–	–
CO[C@H]1CC[C@]2(C)C3=CC[C@@]4(C)C(CC[C@@H]4C(C)CC[C@@H](C)C(C)C)C(=CCC2C1)O3 (stereo partly specified)	> 25	> 25	> 25	> 25	–	–	> 25	> 25	> 25	> 25	–	–
C=C1C(=O)[C@]23C[C@H]1C[C@@H](O)[C@H]2[C@]1(COC3=O)[C@@H](OC(C)=O)CC[C@@](C)(COC(C)=O)[C@H]1C=O	> 50	> 50	> 50	14.1	> 50	> 50	> 50	> 50	–	> 50	–	–
O=S(c1ccccc1)C1CC2CC3(CCC21O)OCCO3 (stereo unspecified)	> 100	–	> 100	> 100	> 100	> 100	> 100	> 100	> 100	> 100	–	–
C[C@]12C(=O)C=CCC1=CC[C@@H]1[C@@H]2[C@H]2CC3(O)C(=O)O[C@@]4(C)[C@H]5C[C@@]6(C)[C@@H]7[C@@]2(O)[C@]1(OC[C@H]6C(=O)O5)O[C@]734 (stereo partly specified)	> 100	> 100	> 100	> 100	> 100	> 100	> 100	> 100	–	> 100	–	–
